From US20130096067A1, “DROSOPHILA TUMOR STEM CELL MODEL AND USES THEREOF” (priority 2011, published 2013)
Read-outs that look alike come from different tables or passages of the source.

System: Raf-1^gof intestinal tumors
Settings: for Log2 (fold) (luciferase activity, log2 of the fold difference relative to DMSO controls) / Fold (luciferase activity, fold difference relative to DMSO controls): screen of 480 ICCB compounds in vials, compounds fed to flies with one-day old Raf-1^gof tumors, esg-Gal4 luciferase; for Fold: Table 3 summary of hits, Screen ICCB, luciferase relative to DMSO, fed three consecutive days in vials
[1] = ICCB compounds fed in vials to flies with one-day old Raf-1^gof tumors, assessed three days later
[2] = ICCB compounds fed in vials to flies with one-day old Raf-1^gof tumors, assessed three days later, averaged from multiple wells
[3] = assessed three days later, averaged from multiple wells
Throughout, for Fold (luciferase activity relative to DMSO controls): test concentration or dose not given here.
Throughout, for Fold (luciferase activity, fold difference relative to DMSO controls): test concentration or dose not given here.
Throughout, for Log2 (fold) (luciferase activity, log2 of the fold difference relative to DMSO controls): test concentration or dose not given here.
Throughout, for Log2 (fold) of luciferase activity relative to DMSO controls: test concentration or dose not given here.

Compound | Log2 (fold) of luciferase activity relative to DMSO controls [1] | Fold (luciferase activity relative to DMSO controls) [2] [fold] | Log2 (fold) (luciferase activity, log2 of the fold difference relative to DMSO controls) (assessed three days later) | Fold (luciferase activity, fold difference relative to DMSO controls) [3] | further results
CCCCC/C=C\C[C@@H](O)/C=C/C=C/C=C\[C@@H](O)CCCC(=O)O [LEUKOTRIENE B4] | −0.037 | 0.975 | – | – | –
CCCCCCCCCCCCCCCC(=O)N[C@H](CN1CCOCC1)[C@H](O)c1ccccc1 (racemic) [DL-PPMP] | 0.108 | 1.078 | – | – | –
CCCCC/C=C\C/C=C\C/C=C\C/C=C\CCCC(=O)NCc1ccc(O)c(OC)c1 [Arvanil] | – | – | −0.482 | 0.716 | –
COc1ccc(C[C@H]2NC[C@H](O)[C@H]2OC(C)=O)cc1 [anisomycin] | −0.148 | 0.902 | – | – | –
CCCCC/C=C\C/C=C\CCCCCCCCCC(=O)O [EICOSADIENOIC ACID (20:2 n-6)] | −0.093 | 0.938 | – | – | –
ICRF-193 [reference compound] | – | – | −1.459 | 0.364 | Fold: 0.364 fold
mastoparan | – | – | −0.301 | 0.812 | –
CC/C=C\C/C=C\C/C=C\C/C=C\C/C=C\CCCC(=O)O [EICOSAPENTAENOIC ACID (20:5 n-3)] | 0.024 | 1.017 | – | – | –
CCCCC/C=C\C/C=C\C/C=C\CCCCC(=O)O [GAMMA-LINOLENIC ACID (18:3 n-6)] | −0.145 | 0.904 | – | – | –
COC[C@@H]([C@H](O)[C@H](O)C(=O)NCC[C@H](C)c1nc(/C=C/C[C@@H]2O[C@]3(C[C@@H](O)[C@@H]2C)O[C@H]([C@H](C[C@H](O)[C@H](C)[C@H](O)[C@H](C)/C=C(C)/C(C)=C/C=C/C(C)=C\C#N)OC)[C@H](OP(=O)(O)O)C3(C)C)co1)N(C)C [calyculin A, reference compound] | – | – | −1.276 | 0.413 | Fold: 0.413 fold
CC(=O)N[C@@H](CSC/C=C(\C)CC/C=C(\C)CC/C=C(\C)CCC=C(C)C)C(=O)O [AGGC] | – | – | – | – | Fold (luciferase activity relative to DMSO controls) (in vivo): 1.001 fold; Log2 (fold) of luciferase activity relative to DMSO controls (in vivo): 0.001
CC(C)(Oc1ccc(CCNC(=O)c2ccc(Cl)cc2)cc1)C(=O)O [bezafibrate] | −0.211 | 0.864 | – | – | –
COC1=C2C[C@@H](C)C[C@H](OC)[C@H](O)[C@@H](C)/C=C(\C)[C@H](OC(N)=O)[C@@H](OC)/C=C\C=C(/C)C(=O)NC(=CC1=O)C2=O [geldanamycin] | – | – | −0.772 | 0.586 | –
CCCCC/C=C\C/C=C\C/C=C\C/C=C\CCCCCC(=O)NCCO [ANANDAMIDE (22:4, n-6)] | 0.007 | 1.005 | – | – | –
NC(=Nc1ccccc1)NC(=O)c1nc(Cl)c(N)nc1N | 0.088 | 1.063 | – | – | –
CCCCCC(O)CCCC(=O)O (stereo not drawn) [5-HYDROXYDECANOATE] | – | – | −0.357 | 0.781 | –
CCCCCC[C@@H]([C@@H](C)O)n1cnc2c(N)ncnc21.Cl [EHNA HCl] | – | – | −0.312 | 0.805 | –
COc1cc2c(cc1OC)-c1c/c(=N\c3c(C)cc(C)cc3C)n(C)c(=O)n1CC2 [Trequinsin] | – | – | −0.279 | 0.824 | –

Compound | Log2 (fold) of luciferase activity relative to DMSO controls [1] | Fold (luciferase activity relative to DMSO controls) [2] [fold] | Log2 (fold) (luciferase activity, log2 of the fold difference relative to DMSO controls) (assessed three days later) | Fold (luciferase activity, fold difference relative to DMSO controls) [3] | further results
CCOC(=O)C1=C[C@]2(CC)CCCN3CCc4c(n1c1ccccc41)[C@@H]32 [vinpocetine] | 0.280 | 1.214 | – | – | –
CCOc1ccc(-c2nc3ccc(-c4nc5ccc(N6CCN(C)CC6)cc5[nH]4)cc3[nH]2)cc1 | – | – | −0.592 | 0.663 | –
CCCCC/C=C\C\C=C/C=C/C=C/[C@@H](SC[C@H](N)C(=O)NCC(=O)O)[C@@H](O)CCCC(=O)O [LEUKOTRIENE D4] | 0.234 | 1.176 | – | – | –
CCCCCCCCCCCCCCCCOC[C@@H](O)COP(=O)([O-])OCC[N+](C)(C)C [LYSO-PAF C16] | −0.087 | 0.941 | – | – | –
CCCCC/C=C\C/C=C\CCCCCCCC(N)=O [LINOLEAMIDE] | −0.027 | 0.981 | – | – | –
Nc1ncnc2c1ncn2C1CCCO1 (stereo not drawn) [SQ22536] | – | – | −0.270 | 0.829 | –
C#CCCCCCCCCCCCCCCCC(=O)O [17-OCTADECYNOIC ACID] | – | – | −0.358 | 0.780 | –
CCCCCCCCCCC/C=C\C(C)(C)/C=C\CCCC(=O)O [7,7-DIMETHYLEICOSADIENOIC ACID] | 0.021 | 1.014 | – | – | –
Oc1cc2c(cc1O)CN(C(=S)NCCc1ccc(Cl)cc1)CCC2 [capsazepine] | −0.030 | 0.979 | – | – | –
CCCCCCCCC#CCC#CCC#CCCCC(=O)O [5,8,11-EICOSATRIYNOIC ACID] | 0.094 | 1.067 | – | – | –
CC1=NN(c2ccccc2)C(=O)C1 [MCI-186] | −0.200 | 0.871 | – | – | –
C=C(C)[C@@H]1CC[C@]2(C(=O)O)CC[C@]3(C)[C@H](CC[C@@H]4[C@@]5(C)CC[C@H](O)C(C)(C)[C@@H]5CC[C@]43C)[C@@H]12 [Betulinic acid] | – | – | −0.708 | 0.612 | –
Clc1ccc(-c2nc3sccn3c2/C=N/OCc2ccc(Cl)c(Cl)c2)cc1 [CITCO] | −0.162 | 0.894 | – | – | –
C[C@@H](N)[C@H]1CC[C@H](C(=O)Nc2ccncc2)CC1 [Y-27632] | – | – | −0.380 | 0.768 | –
CC(C)(C)c1cc(/C=C(\C#N)C(N)=S)cc(C(C)(C)C)c1O [AG-879] | 0.902 | 1.869 | – | – | –
CCCCC[C@H](O)CC(=O)CCc1ccc(O)c(OC)c1 [GINGEROL] | – | – | −0.273 | 0.827 | –
CC(=O)OCOC(c1cc([N+](=O)[O-])ccc1Oc1ccc(Br)cc1)P(=O)(OCOC(C)=O)OCOC(C)=O (stereo not drawn) [RWJ-60475-(AM)3] | – | – | −0.217 | 0.861 | –
